Literature values in patent US20210170044A1, “SYSTEMS AND METHODS FOR LYSOSOME INDUCED IMMUNOGENIC CELL DEATH” (Antigenesis LLC, priority 2017, published 2021).

System: advanced hepatocellular carcinoma
Details: patients with advanced hepatocellular carcinoma receiving 5-fluorouracil; pravastatin as well vs control group

O=c1[nH]cc(F)c(=O)[nH]1 [5-fluoroucacil]
median survival time: 9 months
